In ChEMBL document CHEMBL1129718, “Morphan based substance P antagonists” (Bioorg Med Chem Lett, 1996):
pKi: −log10 of the molar value.

Target: Substance-P receptor (Homo sapiens, UniProt P25103)
Assay: Compound was evaluated for binding affinity towards neurokinin NK1 receptor.

Chain of Substance-P receptor (P25103 whole entry): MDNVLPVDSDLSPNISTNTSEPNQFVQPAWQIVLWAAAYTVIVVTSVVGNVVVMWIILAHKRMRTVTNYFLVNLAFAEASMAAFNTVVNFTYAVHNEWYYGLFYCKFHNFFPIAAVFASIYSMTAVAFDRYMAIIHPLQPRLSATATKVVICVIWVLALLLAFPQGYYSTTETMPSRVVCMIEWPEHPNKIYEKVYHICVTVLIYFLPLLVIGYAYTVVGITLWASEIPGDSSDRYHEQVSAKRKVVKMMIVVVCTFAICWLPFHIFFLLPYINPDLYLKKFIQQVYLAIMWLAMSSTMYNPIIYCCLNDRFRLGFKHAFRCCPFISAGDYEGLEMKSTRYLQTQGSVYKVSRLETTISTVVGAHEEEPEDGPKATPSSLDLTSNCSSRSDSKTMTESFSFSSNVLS

SMILES	pKi
COc1ccccc1CN[C@H]1C2CCNC1(c1ccccc1)CC=C2C (some centres not stated)	9.20
COc1ccccc1CN[C@@H]1C2CCNC1(c1ccccc1)CC=C2C (some centres not stated)	< 5.50
